Measurements from PubChem BioAssay AID1259408 (Genetic Toxicology Data Bank (GENE-TOX), 2018).
Active and inactive are the calls of the source. No rule for the calls is given here.

Tested on: GENE-TOX genotoxicity assays, various organisms and cells
Test: GENE-TOX mutagenicity studies
Conditions: for call: Assay Type: In vivo carcinogenicity studies
[1] = Species/Cell Type: Escherichia coli polA (W3119 vs P3478), Assay Type: Rec-assay, DNA effects (bacterial DNA repair), Assay Code: RE1+, Evaluation Type: Evaluation A (Pre-1980)
[2] = Species/Cell Type: Nonhuman, Assay Type: Sister-chromatid exchange (SCE) in vitro, Assay Code: SC2+D, Dose Response: With dose response, Evaluation Type: Evaluation B (Post-1980)
[3] = Species/Cell Type: Saccharomyces cerevisiae, Assay Type: Mitotic recombination or gene conversion, Assay Code: YEH+, Evaluation Type: Evaluation A (Pre-1980)
[4] = Species/Cell Type: Salmonella typhimurium (one or more of the five standard strains: TA98, TA100, TA1535, TA1537, and TA1538), Assay Type: Histidine reverse gene mutation, Ames assay, Assay Code: SAL+, Evaluation Type: Evaluation A (Pre-1980)
[5] = Species/Cell Type: Human lymphocytes, Assay Type: Sister-chromatid exchange (SCE) in vitro, Assay Code: SCL+, Evaluation Type: Evaluation B (Post-1980)
[6] = Species/Cell Type: Human, Assay Type: Sister-chromatid exchange (SCE) in vitro, Assay Code: SC1+, Evaluation Type: Evaluation B (Post-1980)
[7] = Species/Cell Type: Human diploid fibroblasts, Assay Type: Unscheduled DNA synthesis (UDS) in vitro, DNA effects, Assay Code: UDH-, Evaluation Type: Evaluation A (Pre-1980)
[8] = Species/Cell Type: Saccharomyces cerevisiae, Assay Type: Mitotic recombination or gene conversion, Assay Code: YEC-, Evaluation Type: Evaluation A (Pre-1980)
[9] = Species/Cell Type: Salmonella typhimurium (one or more of the five standard strains: TA98, TA100, TA1535, TA1537, and TA1538), Assay Type: Histidine reverse gene mutation, Ames assay, Assay Code: SALT, Evaluation Type: Evaluation A (Pre-1980)
[10] = Species/Cell Type: Mammalian polychromatic erythrocytes, Assay Type: Micronucleus test, chromosome aberrations, Assay Code: MNTT, Evaluation Type: Evaluation B (Post-1980)
[11] = Species/Cell Type: Escherichia coli WP2, Assay Type: Tryptophan reverse gene mutation, Assay Code: WP2+, Evaluation Type: Evaluation A (Pre-1980)
[12] = Species/Cell Type: Saccharomyces cerevisiae, Assay Type: Mitotic recombination or gene conversion, Assay Code: YEC+, Evaluation Type: Evaluation A (Pre-1980)

## O=[N+]([O-])c1ccc2c(c1)Cc1ccccc1-2
Species/Cell Type: Escherichia coli polA (W3110 vs P3478), Assay Type: Rec-assay, DNA effects (bacterial DNA repair), Assay Code: RE2T, Evaluation Type: Evaluation A (Pre-1980)
  mutagenic call: no conclusion
[1]
  mutagenic call: active; positive
Species/Cell Type: Mouse, Sex: Male, Assay Type: Sperm morphology, Assay Code: SPI-, Evaluation Type: Evaluation A (Pre-1980)
  mutagenic call: inactive; negative
Species/Cell Type: Neurospora crassa, Assay Type: Aneuploidy, chromosome aberrations, Assay Code: NEN-, Evaluation Type: Evaluation A (Pre-1980)
  mutagenic call: inactive; negative
[2]
  mutagenic call: active; positive
Species/Cell Type: Nonhuman, Assay Type: Sister-chromatid exchange (SCE) in vivo, Assay Code: SC3+D, Dose Response: With dose response, Evaluation Type: Evaluation B (Post-1980)
  mutagenic call: active; positive
[3]
  mutagenic call: active; positive
[4]
  mutagenic call: active; positive
Species/Cell Type: Salmonella typhimurium, Assay Type: Forward and reverse gene mutation, host-mediated assay, Assay Code: HMA+, Evaluation Type: Evaluation A (Pre-1980)
  mutagenic call: active; positive
Species/Cell Type: Syrian hamster embryo (SHE) cells, Assay Type: Cell transformation, clonal assay, Assay Code: CTC+, Evaluation Type: Evaluation A (Pre-1980)
  mutagenic call: active; positive

## CCCCCCCCC1CC1CCCCCCCC(=O)OCCOCCOC (centres undefined)
Species/Cell Type: Nonhuman, Assay Type: Sister-chromatid exchange (SCE) in vitro, Assay Code: SC2T, Evaluation Type: Evaluation B (Post-1980)
  mutagenic call: no conclusion

## CCC(=O)Oc1ccc(/C(CC)=C(\CC)c2ccc(OC(=O)CC)cc2)cc1
[5]
  mutagenic call: active; positive
[6]
  mutagenic call: active; positive
Species/Cell Type: Nonhuman, Assay Type: Sister-chromatid exchange (SCE) in vivo, Assay Code: SC3T, Evaluation Type: Evaluation B (Post-1980)
  mutagenic call: no conclusion
Species/Cell Type: Saccharomyces cerevisiae, Assay Type: Aneuploidy, chromosome aberrations, Assay Code: YEN+, Evaluation Type: Evaluation A (Pre-1980)
  mutagenic call: active; positive

## CCNc1nc(Cl)nc(NCC)n1
Species/Cell Type: Drosophila melanogaster, Assay Type: Aneuploidy, partial sex chromosome loss, chromosome aberrations, Assay Code: DAPT, Evaluation Type: Evaluation A (Pre-1980)
  mutagenic call: no conclusion
Species/Cell Type: Drosophila melanogaster, Assay Type: Aneuploidy, sex chromosome gain, chromosome aberrations, Assay Code: DAGT, Evaluation Type: Evaluation A (Pre-1980)
  mutagenic call: no conclusion
Species/Cell Type: Drosophila melanogaster, Assay Type: Aneuploidy, whole sex chromosome loss, chromosome aberrations, Assay Code: DAC-M, Evaluation Type: Evaluation A (Pre-1980)
  mutagenic call: inactive; negative
[7]
  mutagenic call: inactive; negative
[8]
  mutagenic call: inactive; negative
Species/Cell Type: Saccharomyces cerevisiae, Assay Type: Mitotic recombination or gene conversion, Assay Code: YEH-, Evaluation Type: Evaluation A (Pre-1980)
  mutagenic call: inactive; negative
[9]
  mutagenic call: no conclusion
Species/Cell Type: Syrian hamster embryo (SA7/SHE) cells, Assay Type: Cell transformation, viral enhanced, Assay Code: CT7+, Evaluation Type: Evaluation A (Pre-1980)
  mutagenic call: active; positive

## COc1cc(-c2ccc(-[n+]3nc(-c4ccccc4)nn3-c3ccc([N+](=O)[O-])cc3)c(OC)c2)ccc1-[n+]1nc(-c2ccccc2)nn1-c1ccc([N+](=O)[O-])cc1
Species/Cell Type: Bacillus subtilis (H17 vs M45T), Assay Type: Rec-assay, spot test, DNA effects (bacterial DNA repair), Assay Code: REXT, Evaluation Type: Evaluation A (Pre-1980)
  mutagenic call: no conclusion

## O=C(Nc1ccc(Br)cc1)c1cc(Br)cc(Br)c1O
[10]
  mutagenic call: no conclusion

## O=[N+]([O-])c1ccc(N=Nc2c(O)ccc3ccccc23)c(Cl)c1
Species/Cell Type: Salmonella typhimurium (one or more of the five standard strains: TA98, TA100, TA1535, TA1537, and TA1538), Assay Type: Histidine reverse gene mutation, Ames assay, Assay Code: SAL+*, Activation: With metabolic activation, Evaluation Type: Evaluation A (Pre-1980)
  mutagenic call: active; positive

## CCN(CCO)CCCNc1c2ccc(Cl)cc2nc2ccc(OC)cc12
Species/Cell Type: Chinese hamster ovary (CHO) cells, Assay Type: Forward gene mutation at the HPRT locus, Assay Code: CHO-, Evaluation Type: Evaluation A (Pre-1980)
  mutagenic call: inactive; negative
Species/Cell Type: Chinese hamster ovary (CHO) cells, Assay Type: Forward gene mutation at the HPRT locus, Assay Code: CHOT, Evaluation Type: Evaluation B (Post-1980)
  mutagenic call: no conclusion

## CCNC(=O)Nc1ncc([N+](=O)[O-])s1
Species/Cell Type: Nonhuman, Assay Code: CCG+, Evaluation Type: Evaluation A (Pre-1980)
  call: active; positive

## O=S(=O)(O)c1ccc2c(N=Nc3ccccc3)c(O)ccc2c1
[8]
  mutagenic call: inactive; negative

## C1CC[C@H]2O[C@H]2C1
Species/Cell Type: Nonhuman, Assay Type: Sister-chromatid exchange (SCE) in vitro, Assay Code: SC2+, Evaluation Type: Evaluation B (Post-1980)
  mutagenic call: active; positive
Species/Cell Type: Nonhuman, Assay Type: Sister-chromatid exchange (SCE) in vitro, Assay Code: SC2T, Evaluation Type: Evaluation A (Pre-1980)
  mutagenic call: no conclusion

## Cc1cc(N)c(N)cc1N
[9]
  mutagenic call: no conclusion

## Cc1c2ccccc2cc2c1ccc1cccc(C)c12
Species/Cell Type: Drosophila melanogaster, Assay Type: Sex-linked recessive lethal gene mutation, Assay Code: SRLT, Evaluation Type: Evaluation A (Pre-1980)
  mutagenic call: no conclusion

## C[C@]12CCC3=C4CCC(=O)C=C4CC[C@H]3[C@@H]1CC[C@@]2(O)CC#N
Species/Cell Type: Rabbit, Sex: Male, Assay Type: Sperm morphology, Assay Code: SPR+, Evaluation Type: Evaluation A (Pre-1980)
  mutagenic call: active; positive

## CC(C)Oc1ccccc1OC(=O)N(C)N=O
Species/Cell Type: Bacillus subtilis (H17 vs M45T), Assay Type: Rec-assay, spot test, DNA effects (bacterial DNA repair), Assay Code: REX+, Evaluation Type: Evaluation A (Pre-1980)
  mutagenic call: active; positive
[11]
  mutagenic call: active; positive
[12]
  mutagenic call: active; positive
[4]
  mutagenic call: active; positive

## CCN(CCCl)CCCNc1ccnc2cc(Cl)ccc12
Species/Cell Type: Neurospora crassa, Assay Type: Reverse gene mutation, Assay Code: NER+, Evaluation Type: Evaluation A (Pre-1980)
  mutagenic call: active; positive

## O=C1[C@H]2CC=CC[C@H]2C(=O)N1SC(Cl)(Cl)Cl
Species/Cell Type: Aspergillus nidulans, Assay Type: Aneuploidy, chromosome aberrations, Assay Code: ASN-, Evaluation Type: Evaluation A (Pre-1980)
  mutagenic call: inactive; negative
Species/Cell Type: Aspergillus nidulans, Assay Type: Mitotic recombination, Assay Code: ASG+, Evaluation Type: Evaluation A (Pre-1980)
  mutagenic call: active; positive
Species/Cell Type: Bacillus subtilis (H17 vs M45), Assay Type: Rec-assay, spot test, DNA effects (bacterial DNA repair), Assay Code: REW+, Evaluation Type: Evaluation A (Pre-1980)
  mutagenic call: active; positive
Species/Cell Type: Chinese hamster lung (V79) cells, Assay Type: Forward gene mutation at the HPRT or ouabain locus, Assay Code: V79+, Evaluation Type: Evaluation A (Pre-1980)
  mutagenic call: active; positive
Species/Cell Type: Chinese hamster ovary (CHO) cells, Assay Type: Forward gene mutation at the HPRT locus, Assay Code: CHO+, Evaluation Type: Evaluation B (Post-1980)
  mutagenic call: active; positive
Species/Cell Type: Drosophila melanogaster, Assay Type: Sex-linked recessive lethal gene mutation, Assay Code: SRL+, Evaluation Type: Evaluation A (Pre-1980)
  mutagenic call: active; positive
Species/Cell Type: Drosophila melanogaster, Sex: Male, Assay Type: Heritable translocation test, chromosome aberrations, Assay Code: DHTT, Evaluation Type: Evaluation A (Pre-1980)
  mutagenic call: no conclusion
[11]
  mutagenic call: active; positive
Species/Cell Type: Escherichia coli WP2 UVRA, Assay Type: Tryptophan reverse gene mutation, Assay Code: WPU+/-*, Activation: With metabolic activation, Evaluation Type: Evaluation A (Pre-1980)
  mutagenic call: inactive; positive without activation, negative with activation
[1]
  mutagenic call: active; positive
[7]
  mutagenic call: inactive; negative
[5]
  mutagenic call: active; positive
[6]
  mutagenic call: active; positive
Species/Cell Type: Mammalian polychromatic erythrocytes, Assay Type: Micronucleus test, chromosome aberrations, Assay Code: MNT+, Evaluation Type: Evaluation B (Post-1980)
  mutagenic call: active; positive
Species/Cell Type: Mouse, Sex: Male, Assay Type: Heritable translocation test, chromosome aberrations, Assay Code: HTT-, Evaluation Type: Evaluation A (Pre-1980)
  mutagenic call: inactive; negative
Species/Cell Type: Nonhuman, Assay Code: CCG+L, Evaluation Type: Evaluation A (Pre-1980)
  call: active; positive
[2]
  mutagenic call: active; positive
Species/Cell Type: Rodents, Sex: Male, Assay Type: Dominant lethal test, Assay Code: DLT+, Evaluation Type: Evaluation A (Pre-1980)
  mutagenic call: active; positive
[12]
  mutagenic call: active; positive
[3]
  mutagenic call: active; positive
[4]
  mutagenic call: active; positive
Species/Cell Type: Salmonella typhimurium, Serratia marcesens, Assay Type: Forward and reverse gene mutation, host-mediated assay, Assay Code: HM2+, Evaluation Type: Evaluation A (Pre-1980)
  mutagenic call: active; positive
Species/Cell Type: Salmonella typhimurium, Assay Type: Forward and reverse gene mutation, body fluid assay, Assay Code: BFU-, Evaluation Type: Evaluation A (Pre-1980)
  mutagenic call: inactive; negative

## OCN1CCN(CO)C1=S
[10]
  mutagenic call: no conclusion
